Among the data in patent publication US9340510B2, “Tetrahydroisoquinoline derivatives, pharmaceutical compositions and uses thereof” (Boehringer Ingelheim International GmbH, priority 2014, dated 2016) are IC50 values, retold here.

SMILES strings stand for the structures.

This assay deals with human ACC2 (Homo sapiens (Human), UniProt O00763). The experiment in a line: ACC2 assay: spectrophotometric 384 well assay (coupled lactate dehydrogenase/pyruvate kinase). Type of assay: biochemical. The note with it: hACC2 construct lacking the 128 N-terminal amino acids, 25° C., 340 nm. The essentials:
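N-terminally truncated human ACC2 from insect cells; ADP formation coupled via pyruvate kinase/lactate dehydrogenase, NADH loss read at 340 nm over 15 min at 25 °C, pH 7.5. Started with NADH, acetyl-CoA and 500 µM ATP; 1% DMSO. IC50 by nonlinear fit of background-subtracted slopes.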

human ACC2, sequence (O00763 129-2458): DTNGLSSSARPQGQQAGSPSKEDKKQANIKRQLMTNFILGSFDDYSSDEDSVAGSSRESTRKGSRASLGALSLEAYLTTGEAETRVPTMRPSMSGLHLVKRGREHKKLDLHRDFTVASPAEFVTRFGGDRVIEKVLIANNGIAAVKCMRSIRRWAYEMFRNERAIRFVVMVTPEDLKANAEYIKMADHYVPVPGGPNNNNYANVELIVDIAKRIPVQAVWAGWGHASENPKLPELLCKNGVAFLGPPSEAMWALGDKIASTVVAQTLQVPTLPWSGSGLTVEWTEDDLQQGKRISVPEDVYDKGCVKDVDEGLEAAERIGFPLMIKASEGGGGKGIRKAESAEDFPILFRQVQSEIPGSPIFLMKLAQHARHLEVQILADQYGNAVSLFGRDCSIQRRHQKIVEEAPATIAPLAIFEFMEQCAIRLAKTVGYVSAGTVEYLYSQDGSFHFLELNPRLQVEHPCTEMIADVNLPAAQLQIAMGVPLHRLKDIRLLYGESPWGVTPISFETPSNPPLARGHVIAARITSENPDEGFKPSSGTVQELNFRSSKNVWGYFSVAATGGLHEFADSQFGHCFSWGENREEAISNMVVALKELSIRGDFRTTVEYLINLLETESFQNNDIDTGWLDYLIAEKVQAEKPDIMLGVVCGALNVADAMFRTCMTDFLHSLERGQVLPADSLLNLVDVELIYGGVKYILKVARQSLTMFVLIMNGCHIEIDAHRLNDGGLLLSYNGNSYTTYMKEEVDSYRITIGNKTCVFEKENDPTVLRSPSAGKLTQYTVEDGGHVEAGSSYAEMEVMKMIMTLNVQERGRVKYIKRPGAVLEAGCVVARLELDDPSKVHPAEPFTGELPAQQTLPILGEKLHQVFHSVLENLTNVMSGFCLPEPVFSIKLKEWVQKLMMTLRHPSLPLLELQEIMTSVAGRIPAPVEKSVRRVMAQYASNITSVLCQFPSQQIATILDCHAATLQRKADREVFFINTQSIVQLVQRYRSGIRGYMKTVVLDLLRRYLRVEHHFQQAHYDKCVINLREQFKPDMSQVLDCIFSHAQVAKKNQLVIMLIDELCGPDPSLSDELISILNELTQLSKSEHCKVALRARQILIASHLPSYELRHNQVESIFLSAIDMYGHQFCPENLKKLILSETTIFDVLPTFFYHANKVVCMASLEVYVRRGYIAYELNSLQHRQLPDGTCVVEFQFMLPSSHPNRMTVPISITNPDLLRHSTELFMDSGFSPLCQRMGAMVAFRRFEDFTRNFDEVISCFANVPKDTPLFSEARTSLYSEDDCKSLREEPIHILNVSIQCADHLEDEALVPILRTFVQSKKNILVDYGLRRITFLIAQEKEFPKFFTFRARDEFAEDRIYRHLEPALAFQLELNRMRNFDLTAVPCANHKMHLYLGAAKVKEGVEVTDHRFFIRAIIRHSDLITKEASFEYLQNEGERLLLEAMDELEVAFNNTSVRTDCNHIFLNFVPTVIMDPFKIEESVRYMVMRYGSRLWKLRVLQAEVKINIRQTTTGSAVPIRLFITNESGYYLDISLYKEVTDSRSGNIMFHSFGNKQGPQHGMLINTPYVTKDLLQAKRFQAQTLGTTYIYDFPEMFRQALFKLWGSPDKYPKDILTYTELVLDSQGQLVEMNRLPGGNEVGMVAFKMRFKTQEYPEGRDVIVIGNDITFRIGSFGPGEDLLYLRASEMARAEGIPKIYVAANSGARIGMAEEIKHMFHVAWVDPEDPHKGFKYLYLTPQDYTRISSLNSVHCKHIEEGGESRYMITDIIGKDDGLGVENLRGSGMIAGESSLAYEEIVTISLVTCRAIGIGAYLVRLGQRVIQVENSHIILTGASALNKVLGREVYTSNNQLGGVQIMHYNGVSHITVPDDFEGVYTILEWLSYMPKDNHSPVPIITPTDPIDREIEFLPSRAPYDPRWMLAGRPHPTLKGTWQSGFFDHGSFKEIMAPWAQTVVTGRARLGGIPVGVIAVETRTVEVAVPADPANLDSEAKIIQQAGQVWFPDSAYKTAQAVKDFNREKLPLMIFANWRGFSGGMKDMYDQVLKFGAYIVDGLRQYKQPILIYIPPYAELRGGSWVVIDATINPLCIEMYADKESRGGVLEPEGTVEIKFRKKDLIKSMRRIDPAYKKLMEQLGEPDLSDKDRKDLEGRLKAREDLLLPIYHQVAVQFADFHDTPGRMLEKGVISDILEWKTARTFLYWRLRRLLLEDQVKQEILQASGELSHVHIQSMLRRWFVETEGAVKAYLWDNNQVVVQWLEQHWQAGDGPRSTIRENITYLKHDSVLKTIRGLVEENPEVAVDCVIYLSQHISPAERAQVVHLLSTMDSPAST

Usually IC50 stands for the concentration needed to halve the response being measured. Low values mean greater potency, high ones weaker potency. Compound `CC(=O)N[C@@H](C)c1ccc(CN2CCc3c(cccc3C(=O)NCc3ccccc3)C2)cc1` [Example 8.001, 2-[4-((S)-1-Acetylamino-ethyl)-benzyl]-1,2,3,4-tetrahydro-isoquinoline-5-carboxylic acid benzylamide] registered an IC50 of 0.715 µM.
With `COC(=O)C1c2ccc(OCC3CC3)cc2CCN1Cc1ccc([C@H](C)NC(C)=O)cc1` (stereo partly drawn) [Example 9.000, 2-[4-((S)-1-Acetylamino-ethyl)-benzyl]-6-cyclopropylmethoxy-1,2,3,4-tetrahydro-isoquinoline-1-carboxylic acid methyl ester] the figure was 0.19 µM.
